Laboratory results as given in US12122761B2, “2-azaspiro[3.4]octane derivatives as M4 agonists” (NOVARTIS AG, priority 2019, dated 2024).

Tests used:
[1] = biological target: T1, human cloned CHRM4 receptor (M4_CHO cells) (Homo sapiens, UniProt P08173); experiment: CHRM4 Ca++ Flux Assay (agonist mode, FDSS 7000EX); assay type: cell-based; conditions: for Emax: Percent Activity, read-out: M4 FDSS PA; for EC50: geometric mean if tested more than once, read-out: M4 FDSS EC50
T1 construct: expressed in transfected cells; host or cells: CHO-K1
T1 sequence (P08173 1-479): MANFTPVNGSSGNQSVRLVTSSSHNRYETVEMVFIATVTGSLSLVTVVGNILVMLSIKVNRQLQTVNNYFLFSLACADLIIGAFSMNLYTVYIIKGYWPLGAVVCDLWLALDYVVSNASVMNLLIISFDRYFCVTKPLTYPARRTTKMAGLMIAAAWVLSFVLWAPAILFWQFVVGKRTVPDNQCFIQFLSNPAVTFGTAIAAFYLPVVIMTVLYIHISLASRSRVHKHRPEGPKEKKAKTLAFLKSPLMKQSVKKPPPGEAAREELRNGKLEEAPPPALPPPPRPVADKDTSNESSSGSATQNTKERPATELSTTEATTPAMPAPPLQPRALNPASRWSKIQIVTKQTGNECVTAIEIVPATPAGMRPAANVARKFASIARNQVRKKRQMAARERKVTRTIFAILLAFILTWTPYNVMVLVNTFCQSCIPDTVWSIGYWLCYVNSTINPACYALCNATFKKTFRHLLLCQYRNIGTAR
Method in brief: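 Agonist-mode response was expressed as percent of the Carbachol EC100 and fitted with four-parameter nonlinear regression over an 11-point triplicate dose series. Intracellular Ca++ was tracked for 3 min by fluorescent dye in CHO-K1 cells stably expressing human CHRM4. Cells were preincubated 60 min with 20 μM ATP in buffer containing 2.5 mM probenecid.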

[2] = biological target: T2, human cloned CHRM3 receptor (M3_CHO cells) (Homo sapiens, UniProt P20309); experiment: CHRM3 Ca++ Flux Assay (agonist mode, FDSS 7000EX); assay type: cell-based; conditions: for Emax: Percent Activity measured to EC100 of Carbachol, read-out: M3 FDSS PA; for EC50: agonist mode, geometric mean if tested more than once, read-out: M3 FDSS EC50
T2 construct: expressed in transfected cells; host or cells: CHO-K1
Method in brief: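 Agonist responses are measured as calcium mobilization in CHO-K1 cells expressing human M3 or M5, tested over an 11-point dose range in triplicate. Percent activity is normalised to carbachol at EC100.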

T2 sequence (P20309 whole entry): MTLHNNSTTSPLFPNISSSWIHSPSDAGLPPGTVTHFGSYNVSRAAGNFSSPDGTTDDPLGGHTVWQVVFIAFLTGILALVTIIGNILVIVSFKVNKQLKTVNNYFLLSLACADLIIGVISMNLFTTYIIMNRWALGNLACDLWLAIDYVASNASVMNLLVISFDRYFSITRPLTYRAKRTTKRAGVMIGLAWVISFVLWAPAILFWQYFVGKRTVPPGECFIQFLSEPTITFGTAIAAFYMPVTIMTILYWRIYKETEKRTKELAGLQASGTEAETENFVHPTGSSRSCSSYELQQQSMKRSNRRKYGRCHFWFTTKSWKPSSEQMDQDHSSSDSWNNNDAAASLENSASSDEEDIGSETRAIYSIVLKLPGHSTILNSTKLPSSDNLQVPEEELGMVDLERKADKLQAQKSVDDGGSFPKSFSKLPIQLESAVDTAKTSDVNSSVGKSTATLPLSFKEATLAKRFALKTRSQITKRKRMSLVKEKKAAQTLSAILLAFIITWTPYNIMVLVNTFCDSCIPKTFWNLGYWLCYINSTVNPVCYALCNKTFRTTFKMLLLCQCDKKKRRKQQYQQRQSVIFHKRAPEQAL

| Emax [1] [%] | EC50 [1] [µM] | Emax [2] [%] | EC50 [2] [µM] | SMILES |
| --- | --- | --- | --- | --- |
| 50 | 0.019 | 0 | > 25 | COC(C)(C)COc1ccccc1C1CCN([C@@H]2CCC3(C2)CN(C(=O)C2COC2)C3)CC1 [Example 7HH, (R)-(6-(4-(2-(2-methoxy-2-methylpropoxy)phenyl)piperidin-1-yl)-2-azaspiro[3.4]octan-2-yl)(oxetan-3-yl)methanone] |
| 25 | 0.063 | 0 | > 25 | Cc1nccnc1N1CC2(CC[C@@H](N3CCC(c4ccccc4OCC(C)(C)O)CC3)C2)C1 [Example 5T, (R)-2-methyl-1-(2-(1-(2-(3-methylpyrazin-2-yl)-2-azaspiro[3.4]octan-6-yl)piperidin-4-yl)phenoxy)propan-2-ol] |
| 67 | 0.17 | 0 | > 25 | c1ccc(C2CCN([C@H]3CCC4(C3)CN(c3nnco3)C4)CC2)c(C2CCOCC2)c1 (single isomer, unassigned) [Example 10T] |
| 34 | 0.019 | 0 | > 25 | CC(C)(O)CCOc1ccccc1C1CCN([C@@H]2CCC3(C2)CN(c2ncns2)C3)CC1 [Example 3L, (R)-4-(2-(1-(2-(1,2,4-thiadiazol-5-yl)-2-azaspiro[3.4]octan-6-yl)piperidin-4-yl)phenoxy)-2-methylbutan-2-ol] |
| 80 | 0.017 | 0 | > 25 | c1ccc(C2CCN([C@@H]3CCC4(C3)CN(c3cncnc3)C4)CC2)c(C2CCOCC2)c1 [Example 5BB, (R)-2-(pyrimidin-5-yl)-6-(4-(2-(tetrahydro-2H-pyran-4-yl)phenyl)piperidin-1-yl)-2-azaspiro[3.4]octane] |
| 50 | 0.005 | 0 | > 25 | O=C(C1COC1)N1CC2(CC[C@@H](N3CCC(c4ccc(F)cc4OC(F)F)CC3)C2)C1 [Example 6B, (R)-(6-(4-(2-(difluoromethoxy)-4-fluorophenyl)piperidin-1-yl)-2-azaspiro[3.4]octan-2-yl)(oxetan-3-yl)methanone] |
| 58 | 0.02 | 0 | > 25 | CC(C)(O)COc1ccccc1C1CCN([C@@H]2CCC3(C2)CN(C(=O)C2COC2)C3)CC1 [Example 7L, (R)-(6-(4-(2-(2-hydroxy-2-methylpropoxy)phenyl)piperidin-1-yl)-2-azaspiro[3.4]octan-2-yl)(oxetan-3-yl)methanone] |
| 24 | 0.054 | 0 | > 25 | COCCOc1ccccc1C1CCN([C@@H]2CCC3(C2)CN(c2cccnn2)C3)CC1 [Example 5X, (R)-6-(4-(2-(2-methoxyethoxy)phenyl)piperidin-1-yl)-2-(pyridazin-3-yl)-2-azaspiro[3.4]octane] |
| 77 | 0.011 | 0 | > 25 | c1ccc(C2CCN([C@@H]3CCC4(C3)CN(c3nnco3)C4)CC2)c(CC2CCOCC2)c1 [Example 2L, (R)-2-(6-(4-(2-((tetrahydro-2H-pyran-4-yl)methyl)phenyl)piperidin-1-yl)-2-azaspiro[3.4]octan-2-yl)-1,3,4-oxadiazole] |
| 73 | 0.002 | 0 | > 25 | O=C(C1COC1)N1CC2(CC[C@@H](N3CCC(c4ccccc4OC(F)(F)F)CC3)C2)C1 [Example 12A, (R)-oxetan-3-yl(6-(4-(2-(trifluoromethoxy)phenyl)piperidin-1-yl)-2-azaspiro[3.4]octan-2-yl)methanone] |
| 65 | 0.003 | 0 | > 25 | O=C(N1CC2(CC[C@@H](N3CCC(c4ccccc4C4CCOCC4)CC3)C2)C1)C1(F)CC1 [Example 6E, (R)-(1-fluorocyclopropyl)(6-(4-(2-(tetrahydro-2H-pyran-4-yl)phenyl)piperidin-1-yl)-2-azaspiro[3.4]octan-2-yl)methanone] |
| 70 | 0.001 | 0 | > 25 | c1ccc(C2CCN([C@@H]3CCC4(C3)CN(c3nncs3)C4)CC2)c(OC[C@H]2COCCO2)c1 [Example 3B, 2-((R)-6-(4-(2-(((R)-1,4-dioxan-2-yl)methoxy)phenyl)piperidin-1-yl)-2-azaspiro[3.4]octan-2-yl)-1,3,4-thiadiazole] |
| 53 | 0.003 | 0 | > 25 | c1ccc(C2CCN([C@@H]3CCC4(C3)CN(c3cncnc3)C4)CC2)c(OCC2CCOCC2)c1 [Example 1M, (R)-2-(pyrimidin-5-yl)-6-(4-(2-((tetrahydro-2H-pyran-4-yl)methoxy)phenyl)piperidin-1-yl)-2-azaspiro[3.4]octane] |
| 86 | 0.002 | 0 | > 25 | CC1(COc2ccccc2C2CCN([C@@H]3CCC4(C3)CN(c3nnco3)C4)CC2)CCOCC1 [Example 2E, (R)-2-(6-(4-(2-((4-methyltetrahydro-2H-pyran-4-yl)methoxy)phenyl)piperidin-1-yl)-2-azaspiro[3.4]octan-2-yl)-1,3,4-oxadiazole] |
| 24 | 0.274 | 0 | > 25 | O=C(C1COC1)N1CC2(CC[C@H](N3CCC(c4ccccc4OC(F)(F)F)CC3)C2)C1 (single isomer, unassigned) [Example 8G] |
| 74 | 0.001 | 0 | > 25 | c1ccc(C2CCN([C@@H]3CCC4(C3)CN(c3cncnc3)C4)CC2)c(OC2COC2)c1 [Example 1K, (R)-6-(4-(2-(oxetan-3-yloxy)phenyl)piperidin-1-yl)-2-(pyrimidin-5-yl)-2-azaspiro[3.4]octane] |
| 61 | 0.001 | 0 | > 25 | c1ccc(C2CCN([C@@H]3CCC4(C3)CN(c3cncnc3)C4)CC2)c(O[C@@H]2CCOC2)c1 [Example 1P, (R)-2-(pyrimidin-5-yl)-6-(4-(2-(((R)-tetrahydrofuran-3-yl)oxy)phenyl)piperidin-1-yl)-2-azaspiro[3.4]octane] |
| 57 | 0.004 | 0 | > 25 | COCCOc1ccccc1C1CCN([C@@H]2CCC3(C2)CN(c2ncns2)C3)CC1 [Example 3J, (R)-5-(6-(4-(2-(2-methoxyethoxy)phenyl)piperidin-1-yl)-2-azaspiro[3.4]octan-2-yl)-1,2,4-thiadiazole] |
| 48 | 0.007 | 0 | > 25 | O=C(C1COC1)N1CC2(CC[C@@H](N3CCC(c4ccccc4OCCC(F)(F)F)CC3)C2)C1 [Example 7GG, (R)-oxetan-3-yl(6-(4-(2-(3,3,3-trifluoropropoxy)phenyl)piperidin-1-yl)-2-azaspiro[3.4]octan-2-yl)methanone] |
| – | 0.001 | 0 | – | COc1ccc(F)cc1C1CCN([C@@H]2CCC3(C2)CN(C(=O)C2COC2)C3)CC1 [Example 6A, (R)-(6-(4-(5-fluoro-2-methoxyphenyl)piperidin-1-yl)-2-azaspiro[3.4]octan-2-yl)(oxetan-3-yl)methanone] |
| – | 0.006 | 0 | – | CCOc1ccccc1C1CCN([C@@H]2CCC3(C2)CN(C(=O)C2COC2)C3)CC1 [Example 7J, (R)-(6-(4-(2-ethoxyphenyl)piperidin-1-yl)-2-azaspiro[3.4]octan-2-yl)(oxetan-3-yl)methanone] |
